Measured values taken from ChEMBL document CHEMBL4732183, “Synthesis and evaluation of novel cyclopentane urea FPR2 agonists and their potential application in the treatment of cardiovascular inflammation” (Eur J Med Chem, 2021).

Columns and labels:
[1] = Metabolic stability in mouse liver microsomes assessed as half life at 1 uM incubated for 30 mins by LC-MS/MS analysis; type: ADME, Microsome
[2] = Distribution coefficient between octanol and PBS, log D of compound in pH 7.4 at 100 uM incubated for 12 hrs by LC-MS/MS analysis; type: physicochemical
[3] = Metabolic stability in human liver microsomes assessed as half life at 1 uM incubated for 30 mins by LC-MS/MS analysis; type: ADME, Microsome
[4] = AUC extrapolated in C57BL/6 mouse at 10 mg/kg, ip measured upto 24 hrs; type: ADME, organism-based; conditions: in vivo
[5] = Half life in C57BL/6 mouse at 10 mg/kg, ip measured upto 24 hrs; type: ADME, organism-based; conditions: in vivo
[6] = AUC (0 to infinity) in C57BL/6 mouse at 10 mg/kg, ip measured upto 24 hrs; type: ADME, organism-based; design: route intraperitoneal, dose 10 mg/kg, time <=24; conditions: in vivo
[7] = MRT (0 to last) in C57BL/6 mouse at 10 mg/kg, ip measured upto 24 hrs; type: ADME, organism-based; conditions: in vivo
[8] = AUC (0 to last) in C57BL/6 mouse at 10 mg/kg, ip measured upto 24 hrs; type: ADME, organism-based; design: route intraperitoneal, dose 10 mg/kg, time <=24; conditions: in vivo
[9] = Tmax in C57BL/6 mouse at 10 mg/kg, ip measured upto 24 hrs; type: ADME, organism-based; conditions: in vivo
[10] = Cmax in C57BL/6 mouse at 10 mg/kg, ip measured upto 24 hrs; type: ADME, organism-based; design: route intraperitoneal, dose 10 mg/kg, time <=24; conditions: in vivo

Structure (SMILES) | half-life at 1 µM [1] | logD at 12 h, 100 µM [2] | half-life at 1 µM [3] | also measured
O=C(Nc1ccc(Br)cc1)NC(C(=O)NC1COC1)C1CCCC1 (configuration not stated) | > 6.67 h | 4.3 | > 6.67 h | –
O=C(Nc1ccc(Br)cc1)NC(C(=O)Nc1cccnc1)C1CCOCC1 (configuration not stated) | 1.5 h | 4.7 | 3.13 h | –
O=C(Nc1ccc(Br)cc1)NC1(C(=O)Nc2ccccn2)CCCC1 | 0.15 h | 4.3 | 0.133 h | –
O=C(Nc1ccc(Br)cc1)NC1(C(=O)Nc2cccnc2)CCCC1 | 1.32 h | 4.1 | 1.8 h | –
O=C(Nc1ccc(Br)cc1)NC(C(=O)NC1CNC1)C1CCCC1 (configuration not stated) | – | 1.6 | – | –
CN1CCC(NC(=O)C2(NC(=O)Nc3ccc(Br)cc3)CCCC2)CC1 | 3.23 h | 1.2 | 2.62 h | –
O=C(Nc1ccc(Br)cc1)NC1(C(=O)Nc2cncnc2)CCCC1 | 1.73 h | 3.7 | 1.83 h | –
CC(C)C[C@H](NC(=O)Nc1ccc(Br)cc1)C(=O)Nc1cccnc1 | 1.08 h | 4.2 | 1.58 h | –
CC(C)n1cc(NC(=O)C2(NC(=O)Nc3ccc(Br)cc3)CCCC2)cn1 | 1.5 h | 4.2 | 2.17 h | –
O=C(CNC(=O)Nc1ccc(Br)cc1)Nc1cccnc1 | 0.367 h | 3.6 | 1.87 h | –
O=C(Nc1ccc(Br)cc1)NC(CC1CCCCC1)C(=O)Nc1cccnc1 (configuration not stated) | 0.183 h | > 4 | 1.02 h | –

Further lines, with some results ahead:

half-life at 1 µM [1] | logD at 12 h, 100 µM [2] | half-life at 1 µM [3] | Structure (SMILES) | also measured
3.78 h | 3.1 | 2.6 h | Cc1nn(C)cc1NC(=O)C1(NC(=O)Nc2ccc(Br)cc2)CCCC1 | –
0.6 h | 3.9 | 1.67 h | Cc1ccc(NC(=O)C2(NC(=O)Nc3ccc(Br)cc3)CCCC2)cn1 | –
0.733 h | > 4 | 1.52 h | O=C(Nc1ccc(Br)cc1)N[C@@H](CC1CC1)C(=O)Nc1cccnc1 | –
– | > 4 | – | CC(C)n1cc(NC(=O)C(NC(=O)Nc2ccc(Br)cc2)C2CCCC2)cn1 (configuration not stated) | –
– | 3.7 | – | Cc1cncc(NC(=O)C2(NC(=O)Nc3ccc(Br)cc3)CCCC2)c1 | –
1.73 h | > 4 | 3.45 h | O=C(Nc1ccc(Br)cc1)NC(C(=O)NC1CCOCC1)C1CCCC1 (configuration not stated) | –
0.533 h | 4.4 | 0.867 h | O=C(Nc1ccc(Br)cc1)NC1(C(=O)Nc2ccc(Cl)nc2)CCCC1 | –
6.98 h | 1.1 | 8.67 h | O=C(Nc1ccc(Br)cc1)NC1(C(=O)NCc2nn[nH]n2)CCCC1 | –
0.417 h | 4.7 | 0.217 h | O=C(Nc1ccc(Br)cc1)NC(C(=O)NCC1CCCO1)C1CCCC1 (configuration not stated) | –
– | > 4 | – | Cc1nn(C)cc1NC(=O)C(NC(=O)Nc1ccc(Br)cc1)C1CCCC1 (configuration not stated) | –
1.53 h | 4 | 3.07 h | O=C(Nc1ccc(Br)cc1)NC(C(=O)Nc1cncnc1)C1CCCC1 (configuration not stated) | –
0.683 h | > 4 | 1.33 h | O=C(Nc1ccc(Br)cc1)NC(C(=O)Nc1cccnc1)C1CC1 (configuration not stated) | –
7.95 h | 2.5 | 1.83 h | CN1CCC(NC(=O)C(NC(=O)Nc2ccc(Br)cc2)C2CCCC2)CC1 (configuration not stated) | –
0.55 h | > 4 | 1.38 h | O=C(Nc1ccc(Br)cc1)NC(C(=O)Nc1cccnc1)C1CCCC1 (configuration not stated) | %AUCextra [4]: 0.02%; half-life [5]: 2.08 h; AUC(0-inf) [6]: 69000 ng·h/mL; MRT last at 24 h [7]: 2.41 h; AUC(0-t) at 24 h [8]: 69000 ng·h/mL; Tmax [9]: 0.5 h; Cmax [10]: 31900 ng/mL
0.183 h | > 4 | 0.267 h | O=C(Nc1ccc(Br)cc1)NC(C(=O)Nc1cccnn1)C1CCCC1 (configuration not stated) | –
